# Like-named read-outs stand apart in the source and are kept apart here.
# Test system: β-adrenergic receptors
# Settings: Desipramine 5 mg/kg, i.p.; for [^3 H]-DHA Specifically Bound: mean ± SEM, six animals per group
# Procedure: The number of β-adrenergic receptors in rat cerebral cortical membranes was measured after a 4 day and 14 day course of one of the following treatments:
# a) saline control (intraperitoneal injection--i.p.)
# c) fluoxetine (10 mg/kg/day, i.p.) or (10 mg/kg bid, i.p.)
# Male Sprague-Dawley rats (175-200 g) were assigned randomly to one of the four treatment groups above and were treated as indicated for either 4 or 14 days. The animals were sacrificed 24 hours after their last treatment and cerebral cortical membranes were isolated. These membranes were assayed for β-adrenergic receptor number by the method of Bylund and Snyder [Mol. Pharmacol. 12, 568 (1976)] by measuring the amount of [3H]dihydro-alprenolol ([^3 H]-DHA) bound.
structure (smiles),measurement,setting,value
"CNCCC(Oc1ccc(C(F)(F)F)cc1)c1ccccc1 (stereo not shown) [Fluoxetine, fluoxetine]","[^3 H]-DHA Specifically Bound, % Control","A) 14 days, Fluoxetine 10 mg/kg",91 % Control
same,[^3 H]-DHA Specifically Bound,"A) 14 days, Fluoxetine 10 mg/kg, saline 41.8 ± 1.4, * p < 0.05 vs saline, + P < 0.05 vs Desipramine",37.9 ± 1.8 fmol/mg protein
same,"[^3 H]-DHA Specifically Bound, % Control","B) 4 days, Fluoxetine 10 mg/kg bid",95 % Control
same,[^3 H]-DHA Specifically Bound,"B) 4 days, Fluoxetine 10 mg/kg bid, saline 54.6 ± 3.1, * p < 0.05 vs saline",51.8 ± 1.7 fmol/mg protein

# From patent US5149714A, “Antidepressants” (Merrell Dow Pharmaceuticals Inc., priority 1990, dated 1992)
